Molecular target: LRRK2 (Homo sapiens (Human), UniProt Q5S007, G2019S)
Experiment: In Vitro LRRK2 LabChip Assay (LRRK2 Ki)
Format: biochemical
Experimental: In Vitro LRRK2 LabChip Assay
This assay was used to determine a compound's potency in inhibiting activity of LRRK2 by determining, Kiapp, IC50, or percent inhibition values. In a polypropylene plate, LRRK2, fluorescently-labeled peptide substrate, ATP and test compound were incubated together. Using a LabChip 3000 (Caliper Life Sciences), after the reaction the substrate was separated by capillary electrophoresis into two populations: phosphorylated and unphosphorylated. The relative amounts of each were quantitated by fluorescence intensity. LRRK2 Ki was determined according to the equation: Y=V0*(1−((x+Ki*(1+S/Km)+Et)/(2*Et)−(((x+Ki*(1+S/Km)+Et)^2−(4*Et*x))^0.5)/(2*Et))). Ki values in Table 4 and elsewhere herein are shown in μM.
Assay conditions and materials used were as follows:
LRRK2 Wild type in 5 mM MgCl2: 15 nM (Invitrogen lot #500607F)
Kinase reaction time: 2 hours
Wild type in 5 mM MgCl2: 80 μM
Kinase: LRRK2 G2019S (Invitrogen cat #PV4882). • LRRK2 Wild type (Invitrogen cat #PV4874).
Substrate: 5FAM-GAGRLGRDKYKTLRQIRQ-CONH2
Complete Reaction Buffer: H2O/25 mM Tris, pH 8.0/5 mM MgCl2/2 mM DTT/0.01% Triton X-100.
For serial dilutions, 34.6 μl DMSO was added to columns 3-24. For the assay controls, 37.5 μl DMSO was added to columns 1 and 2 of rows A and P. a,d and 50 μl 25 μM G-028831 (Staurosporine) was added to columns 1 and 2, row B. For the samples: to start at 100 μM, 37.5 μl DMSO was to columns 1 and 2, then 12.5 μl 10 mM compound; to start at 10 μM, 78 μl DMSO was added to columns 1 & 2, then 2 μl 10 mM compound; and to start at 1 μM, 25 μM compound (2 μl 10 mM cmpd+798 μl DMSO) was added to empty columns 1 and 2. A Precision instrument was used to perform 1:3.16 serial dilutions (“PLK_BM_serial_halflog”).
ATP was diluted to 282.1 μM in Complete Kinase Buffer (final concentration was 130 μM).
In Complete Reaction Buffer, substrate was diluted to 4 μM. Equal volumes of Complete Reaction Buffer and 4 μM substrate were combined to obtain the blank. Equal volumes of Complete Reaction Buffer and 4 μM substrate were combined and to the combined solution was added 2× final LRRK2 concentration.
To a 50 μl polypropylene plate, 5 μl/well buffer/substrate was added by hand to Blank wells. A Biomek FX was used to start the kinase reaction (“PLK SAR 23 ATP”). The following were added to the appropriate wells:
The plate was incubated for 2 hours in the dark. Biomek FX was used to stop the kinase reaction (“PLK Stop”), and 10 μl/well Stop solution was added to the Assay Plate.
Results were read on the LabChip 3000.
The LabChip 3000 was run using the job “LRRK2 IC50” with the following job settings: […]

Chain of LRRK2 (Q5S007 whole entry G2019S): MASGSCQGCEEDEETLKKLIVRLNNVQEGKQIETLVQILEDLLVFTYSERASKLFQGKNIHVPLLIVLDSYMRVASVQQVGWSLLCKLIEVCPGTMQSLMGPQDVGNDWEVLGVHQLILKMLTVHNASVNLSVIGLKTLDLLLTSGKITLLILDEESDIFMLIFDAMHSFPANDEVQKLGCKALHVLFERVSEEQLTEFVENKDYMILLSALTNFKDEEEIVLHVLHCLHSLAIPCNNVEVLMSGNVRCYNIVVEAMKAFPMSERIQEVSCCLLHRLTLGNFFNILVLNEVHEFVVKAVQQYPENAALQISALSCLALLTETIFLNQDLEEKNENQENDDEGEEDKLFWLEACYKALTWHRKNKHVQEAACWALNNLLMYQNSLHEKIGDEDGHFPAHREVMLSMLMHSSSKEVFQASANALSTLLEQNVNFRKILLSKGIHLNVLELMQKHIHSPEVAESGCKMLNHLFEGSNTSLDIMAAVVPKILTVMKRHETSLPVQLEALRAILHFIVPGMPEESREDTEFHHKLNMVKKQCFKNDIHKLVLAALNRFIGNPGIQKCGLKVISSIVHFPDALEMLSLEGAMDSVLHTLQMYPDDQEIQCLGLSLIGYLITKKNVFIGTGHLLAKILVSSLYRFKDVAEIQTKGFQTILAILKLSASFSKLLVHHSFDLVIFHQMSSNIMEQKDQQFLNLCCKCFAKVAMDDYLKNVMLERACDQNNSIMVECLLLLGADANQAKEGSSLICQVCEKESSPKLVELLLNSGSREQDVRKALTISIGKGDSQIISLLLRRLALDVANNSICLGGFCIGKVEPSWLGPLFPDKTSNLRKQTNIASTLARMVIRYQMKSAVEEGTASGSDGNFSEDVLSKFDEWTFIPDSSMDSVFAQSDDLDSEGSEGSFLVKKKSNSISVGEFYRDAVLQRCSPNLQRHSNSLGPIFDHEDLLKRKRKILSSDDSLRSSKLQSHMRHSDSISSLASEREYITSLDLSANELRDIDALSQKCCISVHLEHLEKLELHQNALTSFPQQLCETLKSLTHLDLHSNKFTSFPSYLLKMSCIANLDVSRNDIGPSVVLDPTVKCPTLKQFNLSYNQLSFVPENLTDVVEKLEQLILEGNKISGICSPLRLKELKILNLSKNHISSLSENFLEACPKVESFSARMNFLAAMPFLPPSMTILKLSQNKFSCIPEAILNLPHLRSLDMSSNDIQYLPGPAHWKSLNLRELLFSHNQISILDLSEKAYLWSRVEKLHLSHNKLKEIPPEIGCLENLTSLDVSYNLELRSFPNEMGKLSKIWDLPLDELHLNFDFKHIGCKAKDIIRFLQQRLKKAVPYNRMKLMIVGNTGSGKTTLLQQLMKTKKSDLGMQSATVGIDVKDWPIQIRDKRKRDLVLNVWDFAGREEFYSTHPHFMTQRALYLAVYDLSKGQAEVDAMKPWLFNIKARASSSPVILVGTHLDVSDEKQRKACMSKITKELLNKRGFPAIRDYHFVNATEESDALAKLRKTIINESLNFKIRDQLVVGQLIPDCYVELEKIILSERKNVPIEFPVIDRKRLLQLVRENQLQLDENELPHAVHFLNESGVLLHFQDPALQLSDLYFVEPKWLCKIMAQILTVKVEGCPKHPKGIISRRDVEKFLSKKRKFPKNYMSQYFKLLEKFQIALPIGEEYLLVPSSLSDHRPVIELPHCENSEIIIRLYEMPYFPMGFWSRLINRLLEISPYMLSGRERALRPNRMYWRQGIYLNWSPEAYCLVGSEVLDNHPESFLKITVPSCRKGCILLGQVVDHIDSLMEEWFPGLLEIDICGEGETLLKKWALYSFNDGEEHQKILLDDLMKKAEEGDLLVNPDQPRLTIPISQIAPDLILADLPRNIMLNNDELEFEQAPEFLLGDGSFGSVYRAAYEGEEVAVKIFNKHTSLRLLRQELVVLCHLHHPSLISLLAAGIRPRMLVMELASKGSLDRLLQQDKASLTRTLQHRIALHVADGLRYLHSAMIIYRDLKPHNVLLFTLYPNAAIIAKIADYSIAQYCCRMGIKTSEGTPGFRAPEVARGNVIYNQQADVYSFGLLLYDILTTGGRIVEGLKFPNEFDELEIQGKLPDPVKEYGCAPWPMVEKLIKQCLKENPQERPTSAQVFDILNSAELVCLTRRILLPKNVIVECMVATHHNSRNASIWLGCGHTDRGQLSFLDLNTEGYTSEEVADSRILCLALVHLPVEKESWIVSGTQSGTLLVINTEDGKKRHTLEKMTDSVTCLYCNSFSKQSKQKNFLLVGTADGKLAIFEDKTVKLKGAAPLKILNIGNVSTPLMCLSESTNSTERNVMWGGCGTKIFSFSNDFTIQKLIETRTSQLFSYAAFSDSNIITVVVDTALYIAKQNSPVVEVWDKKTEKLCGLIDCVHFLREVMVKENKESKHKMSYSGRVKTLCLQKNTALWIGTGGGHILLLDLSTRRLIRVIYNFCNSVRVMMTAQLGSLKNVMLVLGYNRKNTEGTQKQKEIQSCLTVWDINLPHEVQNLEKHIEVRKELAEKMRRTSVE

Question: How did the Ki turn out when `CNc1nc(Nc2cc3c(cc2OC)C(=O)N(C)C3)ncc1C(F)(F)F` [Compound 21, 6-methoxy-2-methyl-5-(4-(methylamino)-5-(trifluoromethyl)pyrimidin-2-ylamino)isoindolin-1-one] was run?
Answer: The Ki was 5 nM.

Question: For `CNc1nc(Nc2cc3oc(C(=O)N(C)C)cc3cc2OC)ncc1C(F)(F)F` [Compound 3, 5-methoxy-N,N-dimethyl-6-((4-(methylamino)-5-(trifluoromethyl)pyrimidin-2-yl)amino)benzofuran-2-carboxamide], which Ki is on record?
Answer: The Ki was 1 nM.

Question: Which Ki does the source give for `CNc1nc(Nc2cc3c(cc2OC)c(C(=O)N2CCOCC2)cn3C)ncc1C(F)(F)F` [Compound 30, (5-methoxy-1-methyl-6-(4-(methylamino)-5-(trifluoromethyl)pyrimidin-2-ylamino)-1H-indol-3-yl)(morpholino)methanone] here?
Answer: Its Ki is 1 nM.

Question: For `CNc1nc(Nc2ccc3c(c2OC)CN(C2CC2)C3=O)ncc1C(F)(F)F` [Compound 10, 2-cyclopropyl-4-methoxy-5-(4-(methylamino)-5-(trifluoromethyl)pyrimidin-2-ylamino)isoindolin-1-one], which Ki is on record?
Answer: Its Ki is 7 nM.

Question: How did the Ki turn out when `CNc1nc(Nc2cc3c(cc2Cl)C(=O)N(C)C3)ncc1C(F)(F)F` [Compound 9, 6-chloro-2-methyl-5-(4-(methylamino)-5-(trifluoromethyl)pyrimidin-2-ylamino)isoindolin-1-one] was run?
Answer: The Ki was 1 nM.

Question: How did the Ki turn out when `CNc1nc(Nc2cc3oc(=O)[nH]c3cc2Cl)ncc1Cl` [Compound 13, 5-chloro-6-(5-chloro-4-(methylamino)pyrimidin-2-ylamino)benzo[d]oxazol-2(3H)-one] was run?
Answer: Its Ki is 4 nM.

Question: With `CNc1nc(Nc2cc3cnn(C)c(=O)c3cc2OC)ncc1C(F)(F)F` [Compound 17, 7-methoxy-2-methyl-6-(4-(methylamino)-5-(trifluoromethyl)pyrimidin-2-ylamino)phthalazin-1(2H)-one] as the compound, how does the Ki read?
Answer: Its Ki is 27 nM.

Question: `CNc1nc(Nc2cc3c(cc2Cl)c(C(=O)N2CCOCC2)cn3C)ncc1C(F)(F)F` [Compound 22, (5-chloro-1-methyl-6-(4-(methylamino)-5-(trifluoromethyl)pyrimidin-2-ylamino)-1H-indol-3-yl)(morpholino)methanone] was tested. Which Ki did it give?
Answer: Its Ki is 3 nM.

Question: With `CNc1nc(Nc2cc3nc(C)oc3cc2Cl)ncc1C(F)(F)F` [Compound 6, N^2-(6-chloro-2-methylbenzo[d]oxazol-5-yl)-N^4-methyl-5-(trifluoromethyl)pyrimidine-2,4-diamine] as the compound, how does the Ki read?
Answer: Its Ki is 5 nM.

Question: `CNc1nc(Nc2ccc3c(c2OC)CN(C)C3=O)ncc1C(F)(F)F` [Compound 11, 4-methoxy-2-methyl-5-(4-(methylamino)-5-(trifluoromethyl)pyrimidin-2-ylamino)isoindolin-1-one] was tested. Which Ki did it give?
Answer: The Ki was 1 nM.

Question: `CCNc1nc(Nc2cc3c(cc2OC)C(=O)N(CC(C)(C)O)C3)ncc1C(F)(F)F` [Compound 24, 5-(4-(ethylamino)-5-(trifluoromethyl)pyrimidin-2-ylamino)-2-(2-hydroxy-2-methylpropyl)-6-methoxyisoindolin-1-one] was tested. Which Ki did it give?
Answer: The Ki was 3 nM.

Question: With `CNc1nc(Nc2cc3c(cc2OC)C(=O)N(C2COC2)C3)ncc1C(F)(F)F` [Compound 25, 6-methoxy-5-(4-(methylamino)-5-(trifluoromethyl)pyrimidin-2-ylamino)-2-(oxetan-3-yl)isoindolin-1-one] as the compound, how does the Ki read?
Answer: The Ki was 6 nM.

Question: Which Ki does the source give for `CNc1nc(Nc2cc3oc(=O)n(C)c3cc2Cl)ncc1C(F)(F)F` [Compound 5, 5-chloro-3-methyl-6-((4-(methylamino)-5-(trifluoromethyl)pyrimidin-2-yl)amino)benzo[d]oxazol-2(3H)-one] here?
Answer: Its Ki is 4 nM.

Question: How did the Ki turn out when `CNc1nc(Nc2cc3c(cc2OC)C(=O)N(C)CC3)ncc1C(F)(F)F` [Compound 15, 7-methoxy-2-methyl-6-(4-(methylamino)-5-(trifluoromethyl)pyrimidin-2-ylamino)-3,4-dihydroisoquinolin-1(2H)-one] was run?
Answer: The Ki was 7 nM.

Question: `CCN1CCN(C(=O)c2cn(C)c3cc(Nc4ncc(C(F)(F)F)c(NC)n4)c(Cl)cc23)CC1` [Compound 32, (5-chloro-1-methyl-6-(4-(methylamino)-5-(trifluoromethyl)pyrimidin-2-ylamino)-1H-indol-3-yl)(4-ethylpiperazin-1-yl)methanone] was tested. Which Ki did it give?
Answer: Its Ki is 1 nM.

Question: With `CNc1nc(Nc2cc3c(cc2Cl)c(C(=O)N2C[C@@H]4C[C@H]2CO4)cn3C)ncc1C(F)(F)F` [Compound 33, (1S,4S)-2-oxa-5-azabicyclo[2.2.1]heptan-5-yl(5-chloro-1-methyl-6-(4-(methylamino)-5-(trifluoromethyl)pyrimidin-2-ylamino)-1H-indol-3-yl)methanone] as the compound, how does the Ki read?
Answer: Its Ki is 3 nM.

Question: With `CNc1nc(Nc2cc3c(cc2OC)C(=O)N(CC(C)(C)O)C3)ncc1C(F)(F)F` [Compound 23, 2-(2-hydroxy-2-methylpropyl)-6-methoxy-5-(4-(methylamino)-5-(trifluoromethyl)pyrimidin-2-ylamino)isoindolin-1-one] as the compound, how does the Ki read?
Answer: Its Ki is 10 nM.

Question: With `CNc1nc(Nc2cc3c(cc2Cl)n(C)c(=O)n3C)ncc1C(F)(F)F` [Compound 4, 5-chloro-1,3-dimethyl-6-((4-(methylamino)-5-(trifluoromethyl)pyrimidin-2-yl)amino)-1H-benzo[d]imidazol-2(3H)-one] as the compound, how does the Ki read?
Answer: The Ki was 2 nM.

Question: How did the Ki turn out when `CNc1nc(Nc2cc3c(cc2Cl)c(C(=O)N(C)C)cn3C)ncc1C(F)(F)F` [Compound 27, 5-chloro-N,N,1-trimethyl-6-(4-(methylamino)-5-(trifluoromethyl)pyrimidin-2-ylamino)-1H-indole-3-carboxamide] was run?
Answer: The Ki was 6 nM.

Question: For `CCNc1nc(Nc2cc3c(cc2OC)C(=O)N(C2COC2)C3)ncc1C(F)(F)F` [Compound 26, 5-(4-(ethylamino)-5-(trifluoromethyl)pyrimidin-2-ylamino)-6-methoxy-2-(oxetan-3-yl)isoindolin-1-one], which Ki is on record?
Answer: Its Ki is 2 nM.

Question: `CNc1nc(Nc2cc3c(cc2OC)N(C)C(=O)C(C)(C)O3)ncc1Cl` [Compound 2, 7-((5-chloro-4-(methylamino)pyrimidin-2-yl)amino)-6-methoxy-2,2,4-trimethyl-2H-benzo[b][1,4]oxazin-3(4H)-one] was tested. Which Ki did it give?
Answer: Its Ki is 1 nM.

Question: Which Ki does the source give for `CNc1nc(Nc2cc3c(cc2OC)CN(C)C3=O)ncc1C(F)(F)F` [Compound 7, 5-methoxy-2-methyl-6-(4-(methylamino)-5-(trifluoromethyl)pyrimidin-2-ylamino)isoindolin-1-one] here?
Answer: Its Ki is 5 nM.

Question: `CCNc1nc(Nc2cc3c(cc2Cl)c(C(=O)N2CCOCC2)cn3C)ncc1C(F)(F)F` [Compound 29] was tested. Which Ki did it give?
Answer: Its Ki is 1 nM.

Question: With `CNc1nc(Nc2cc3c(cc2Cl)c(C(=O)N2CCNCC2)cn3C)ncc1C(F)(F)F` [Compound 28, (5-chloro-1-methyl-6-(4-(methylamino)-5-(trifluoromethyl)pyrimidin-2-ylamino)-1H-indol-3-yl)(piperazin-1-yl)methanone] as the compound, how does the Ki read?
Answer: Its Ki is 4 nM.

Question: For `CNc1nc(Nc2cc3c(cc2OC)C(=O)N(C)CC3)ncc1C#N` [Compound 16, 2-(7-methoxy-2-methyl-1-oxo-1,2,3,4-tetrahydroisoquinolin-6-ylamino)-4-(methylamino)pyrimidine-5-carbonitrile], which Ki is on record?
Answer: Its Ki is 44 nM.

Question: `CNc1nc(Nc2ccc3c(c2OC)CN(C(C)(C)O)C3=O)ncc1C(F)(F)F` [Compound 19, 2-(2-hydroxypropan-2-yl)-4-methoxy-5-(4-(methylamino)-5-(trifluoromethyl)pyrimidin-2-ylamino)isoindolin-1-one] was tested. Which Ki did it give?
Answer: The Ki was 4 nM.

Question: With `CNc1nc(Nc2cc3c(cc2Cl)C(=O)N(C)C3)ncc1Cl` [Compound 8, 6-chloro-5-(5-chloro-4-(methylamino)pyrimidin-2-ylamino)-2-methylisoindolin-1-one] as the compound, how does the Ki read?
Answer: Its Ki is 3 nM.

— patent US8796296B2, “Aminopyrimidine derivatives as LRRK2 modulators” (Genentech, Inc., priority 2011, dated 2014)
